One experiment concerns Vero. Nature of the experiment: cells. Particulars: Chlorocebus sabaeus. The class given is functional.
Experiment [1] can be described thus: growth suppression of beta-catenin-knockout colon cells, dose response, cell-based, HCT116, human colon tumor (AID 1045).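 Note: HCT116 colon tumor cells with beta catenin knocked out; cells exposed to compound for 60 hours.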 The format is functional.
The test system of another experiment is Streptococcus. The experiment in a line: Group A Streptococcus viability loss, dose response, counter-screen for streptokinase expression inhibitor project, luminescence, BacTiterGlo (AID 1915).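 Note: potency for reduction of bacterial viability or growth.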 The format is functional, organism-based. A general note: A counterscreen serves to expose hits that act by an unwanted route or on another target.
Experiment [2] deals with Sphingosine 1-phosphate receptor 2 (Homo sapiens, UniProt O95136). Nature of the experiment: Dose Response Cell Based Assay for Agonists of the S1P2 Receptor. [Related pubchem assays: 729, 736, 843 ]. The class given is functional.
Chain of Sphingosine 1-phosphate receptor 2 (O95136 whole entry): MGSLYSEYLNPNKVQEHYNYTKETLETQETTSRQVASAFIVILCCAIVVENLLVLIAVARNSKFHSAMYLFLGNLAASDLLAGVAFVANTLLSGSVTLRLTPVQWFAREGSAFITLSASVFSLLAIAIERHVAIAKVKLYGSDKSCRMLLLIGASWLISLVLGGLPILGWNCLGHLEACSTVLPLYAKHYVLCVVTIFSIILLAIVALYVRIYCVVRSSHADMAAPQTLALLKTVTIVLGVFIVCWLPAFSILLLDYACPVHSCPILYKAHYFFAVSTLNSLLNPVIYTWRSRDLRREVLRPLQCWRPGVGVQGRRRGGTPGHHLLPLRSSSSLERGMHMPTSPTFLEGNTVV
The subject of experiment [3] is Streptococcus sp. 'group A'. Nature of the experiment: growth inhibition of control SK(-) GAS strain, dose response, counter-screen for streptokinase expression inhibitor project, luminescence, kanamycin, BacTiterGlo, confirmation (AID 1900). The class given is functional, organism-based.
The target of experiment [4] is Neurotensin receptor type 1 (Homo sapiens, UniProt P30989). The format is functional.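 Note: Image-based confirmatory dose-response assay measuring agonist activity at NTR1; NTR1-expressing U2OS osteosarcoma cells imaged for beta-arrestin GFP spot formation; agonist potency where compounds increase beta-arrestin recruitment.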
In experiment [5] the target is Sphingosine 1-phosphate receptor 1 (Homo sapiens, UniProt P21453). Nature of the experiment: Fluorescence-based counterscreen assay for S1P4 agonists: Cell-based dose response high throughput screening assay to identify agonists of the Sphingosine 1-Phosphate Receptor 1 (S1P1). [Related pubchem assays (depositor defined):AID1509, AID1523, AID1801, AID463107, AID463118, AID463119, AID463122, AID463123, AID463129, AID463225, AID504400, AID504460]. The format is functional.
Chain of Sphingosine 1-phosphate receptor 1 (P21453 whole entry): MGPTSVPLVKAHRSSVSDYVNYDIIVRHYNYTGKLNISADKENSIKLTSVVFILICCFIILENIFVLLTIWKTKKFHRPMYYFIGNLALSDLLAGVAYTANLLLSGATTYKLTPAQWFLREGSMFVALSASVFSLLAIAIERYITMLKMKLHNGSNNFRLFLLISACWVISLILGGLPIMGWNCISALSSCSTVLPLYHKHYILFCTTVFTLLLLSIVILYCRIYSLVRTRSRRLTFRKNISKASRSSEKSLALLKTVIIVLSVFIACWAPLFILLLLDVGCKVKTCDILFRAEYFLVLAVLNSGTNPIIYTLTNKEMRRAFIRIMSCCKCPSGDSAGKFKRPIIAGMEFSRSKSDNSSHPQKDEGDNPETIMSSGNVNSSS

Experiment [6] can be described thus: growth suppression of PTEN-null colon cells, dose response, cell-based, HCT116 PTEN knockout (AID 1047).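 Note: HCT116 colon tumor cells with PTEN knocked out; cells exposed to compound for 60 hours before readout; potency for loss of cell viability measured by luminescence.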 The class given is functional.
Another experiment addresses T1, Streptokinase A (Streptococcus pyogenes serotype M1, UniProt P10520).
T1 sequence (P10520 whole entry): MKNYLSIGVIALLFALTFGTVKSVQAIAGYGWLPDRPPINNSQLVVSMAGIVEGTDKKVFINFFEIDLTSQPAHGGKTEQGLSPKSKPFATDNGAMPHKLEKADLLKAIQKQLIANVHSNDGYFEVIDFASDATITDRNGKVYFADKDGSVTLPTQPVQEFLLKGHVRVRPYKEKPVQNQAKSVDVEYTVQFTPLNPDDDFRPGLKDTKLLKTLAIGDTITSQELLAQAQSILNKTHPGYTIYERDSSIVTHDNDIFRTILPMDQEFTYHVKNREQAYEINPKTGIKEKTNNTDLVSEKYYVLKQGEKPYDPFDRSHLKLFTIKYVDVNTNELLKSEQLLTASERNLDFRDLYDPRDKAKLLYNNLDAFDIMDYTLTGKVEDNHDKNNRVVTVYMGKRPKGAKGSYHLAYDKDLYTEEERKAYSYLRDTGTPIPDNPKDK
Nature of the experiment: S. pyogenes streptokinase expression inhibitors, potency, dose response, plasminogen activation absorbance, OD405 (AID 1914).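 Note: secreted streptokinase activity via plasminogen activation per viability signal from cell pellet.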 The format is functional, Streptococcus pyogenes M1 GAS.

In the next experiment the target is T2, Protein Tat (Human immunodeficiency virus type 1 group M subtype B (isolate HXB2)(HIV-1), UniProt P04608).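 Note: tat binding to TAR RNA read out by fluorescence polarization.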
T2 sequence (P04608 whole entry): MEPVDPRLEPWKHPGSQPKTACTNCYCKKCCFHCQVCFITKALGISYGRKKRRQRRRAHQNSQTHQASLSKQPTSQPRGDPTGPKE
The class given is functional.

Experiment [7] addresses T3, Sphingosine 1-phosphate receptor 4 (Homo sapiens, UniProt O95977).
T3 sequence (O95977 whole entry): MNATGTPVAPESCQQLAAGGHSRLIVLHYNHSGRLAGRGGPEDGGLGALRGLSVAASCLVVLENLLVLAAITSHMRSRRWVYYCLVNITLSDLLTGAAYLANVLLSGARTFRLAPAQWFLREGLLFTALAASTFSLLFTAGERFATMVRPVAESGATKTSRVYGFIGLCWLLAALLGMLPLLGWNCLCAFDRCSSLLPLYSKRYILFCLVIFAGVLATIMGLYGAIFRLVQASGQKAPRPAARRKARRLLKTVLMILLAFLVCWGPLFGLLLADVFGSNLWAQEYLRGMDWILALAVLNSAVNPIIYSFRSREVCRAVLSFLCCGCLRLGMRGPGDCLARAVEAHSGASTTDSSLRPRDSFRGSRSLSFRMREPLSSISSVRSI
The experiment in a line: Fluorescence dose response cell-based high throughput screening assay for agonists of the Sphingosine 1-Phosphate Receptor 4 (S1P4). [Related pubchem assays: 1509 (Primary screen.), 1523 (Confirmation screen in triplicates.)]. The format is functional.

A short description of experiment [8]: Vero cell cytotoxicity, dose response, cytotoxicity control for Vif-APOBEC3G degradation inhibitor project, Vero cells (AID 1117358). The class given is functional. Particulars: Human immunodeficiency virus 1, Vero.
Experiment [9] can be described thus: cytotoxicity in HMLE control line with eGFP shRNA, dose response, counter-screen for HMLE_sh_ECad selective toxicity project, cell-based, HMLE_sh_eGFP, luminescence (AID 463074).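 Note: HMLE human mammary epithelial cells expressing control shRNA against eGFP.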 The class given is functional, Homo sapiens.
Experiment [10] can be described thus: Luminescence Cell-Based Dose Retest to Confirm Inhibitors of Cancer Stem Cells. [Related pubchem assays (depositor defined):AID2717, AID2721]. The format is functional. The conditions noted are these: Homo sapiens.
For experiment [11], the target named is Potassium voltage-gated channel subfamily KQT member 2 (Rattus norvegicus, UniProt O88943). Nature of the experiment: KCNQ2 channel activators, analog series, SAR follow-up, automated patch clamp, KCNQ2-CHO cells (AID 493113). The class given is functional. In general terms: Patch clamp records ionic current or voltage across a cell membrane.
Experiment [12] deals with Jurkat. The experiment in a line: SAR Analysis of small molecule inhibitors of […] specific antigen receptor-induced NF-kB activation in a Jurkat cell line using a luminescence assay - Set 3. [Related pubchem assays (depositor defined):AID435022, AID435025, AID465]. The class given is functional, cell-based. The conditions noted are these: Homo sapiens.
In experiment [13] the test system is HEK293. The experiment in a line: SAR Analysis of small molecule inhibitors of B-cell specific antigen receptor-induced NF-kB activation in a HEK-293T cell line using a luminescence assay - Set 2. [Related pubchem assays (depositor defined):AID435022, AID435025, AID489021]. The class given is functional, cell-based. Particulars: Homo sapiens.
The nature of experiment [14]: cytotoxicity in HEK-293T cells, dose response, cytotoxicity control for BCR NF-kB inhibitor project, luminescence, B-cell screen hits (AID 489021).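 Note: HEK-293T cells carrying an NF-kB luciferase reporter; cells exposed to compound for about 14 hours before viability readout.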 The class given is functional, cell-based.
For experiment [15], the system named is HEK293. Nature of the experiment: cytotoxicity in HEK293T NF-kB-Luc cells, SAR follow-up, cytotoxicity control for NF-kB activator project, cell-based, resazurin fluorescence (AID 493251). The format is functional. Particulars: Homo sapiens, HEK293. (In general: Alamar Blue is a resazurin reagent that responds to reducing activity.)
Experiment [16] in a line: cytotoxicity toward NIH3T3 fibroblasts, dose response, counter-screen, cell-based, ATP luminescence, mouse fibroblasts (AID 2010).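 Note: cells exposed to compound for about 90 hours before reading.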 The format is functional.
A further experiment has as its target Apelin receptor (Homo sapiens, UniProt P35414). Nature of the experiment: APJ beta-arrestin recruitment antagonism, SAR follow-up, selectivity assay for CCR6 antagonist project, cell-based, luminescent, enzyme-fragment complementation (AID 588359). The class given is functional.
The target in the next experiment is Beta-galactosidase (Escherichia coli, UniProt Q8VNN2). The experiment in a line: beta-galactosidase enzyme inhibitors and activators, dose response, artefact control for CCR6 antagonist project, biochemical, E. coli enzyme, set 3 (AID 504712). The format is functional.
Chain of Beta-galactosidase (Q8VNN2 whole entry): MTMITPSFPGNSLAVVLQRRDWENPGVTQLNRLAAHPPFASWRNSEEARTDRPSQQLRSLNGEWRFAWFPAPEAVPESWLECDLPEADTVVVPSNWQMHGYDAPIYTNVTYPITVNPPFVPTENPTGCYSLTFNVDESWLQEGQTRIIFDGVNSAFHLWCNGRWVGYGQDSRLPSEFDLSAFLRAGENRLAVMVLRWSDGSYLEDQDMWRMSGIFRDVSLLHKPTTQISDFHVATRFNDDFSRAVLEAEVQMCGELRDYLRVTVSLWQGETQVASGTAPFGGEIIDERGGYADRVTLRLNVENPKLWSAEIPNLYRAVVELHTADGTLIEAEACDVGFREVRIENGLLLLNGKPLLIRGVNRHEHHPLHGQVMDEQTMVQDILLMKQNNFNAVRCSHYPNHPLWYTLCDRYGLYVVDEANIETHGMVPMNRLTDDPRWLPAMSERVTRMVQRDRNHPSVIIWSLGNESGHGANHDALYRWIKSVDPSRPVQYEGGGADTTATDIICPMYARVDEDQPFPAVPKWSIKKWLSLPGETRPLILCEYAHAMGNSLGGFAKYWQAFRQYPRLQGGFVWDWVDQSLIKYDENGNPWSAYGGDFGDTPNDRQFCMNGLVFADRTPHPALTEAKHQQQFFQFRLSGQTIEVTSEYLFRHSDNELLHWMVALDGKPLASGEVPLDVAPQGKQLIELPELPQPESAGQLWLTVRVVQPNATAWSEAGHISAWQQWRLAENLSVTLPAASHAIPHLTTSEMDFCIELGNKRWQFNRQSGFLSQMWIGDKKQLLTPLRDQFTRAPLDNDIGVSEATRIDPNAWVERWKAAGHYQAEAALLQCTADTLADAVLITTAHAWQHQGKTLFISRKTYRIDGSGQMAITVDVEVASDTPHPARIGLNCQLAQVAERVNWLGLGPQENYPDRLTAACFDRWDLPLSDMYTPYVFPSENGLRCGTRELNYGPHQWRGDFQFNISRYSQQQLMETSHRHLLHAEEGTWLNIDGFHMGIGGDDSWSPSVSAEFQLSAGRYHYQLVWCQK
Experiment [17] is described as follows: inhibitors of intracellular T. cruzi replication, confirmation, NIH3T3 host cells, beta-gal luminescence (AID 2044).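 Note: intracellular parasites grown in NIH/3T3 mouse fibroblasts as host cells; luminescent beta-galactosidase reporter signal from transgenic T. cruzi replicating inside host cells; inhibitors lower the luminescence signal.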 The class given is functional, cell-based.
In experiment [18] the target is Voltage-dependent T-type calcium channel subunit alpha-1H (Homo sapiens, UniProt O95180). The experiment in a line: Cav3.2 T-type channel blockers, cell-based, SynthLib3 library, HEK293 Cav3.2, fluorescence (AID 493041). The class given is functional.
Chain of Voltage-dependent T-type calcium channel subunit alpha-1H (O95180 whole entry): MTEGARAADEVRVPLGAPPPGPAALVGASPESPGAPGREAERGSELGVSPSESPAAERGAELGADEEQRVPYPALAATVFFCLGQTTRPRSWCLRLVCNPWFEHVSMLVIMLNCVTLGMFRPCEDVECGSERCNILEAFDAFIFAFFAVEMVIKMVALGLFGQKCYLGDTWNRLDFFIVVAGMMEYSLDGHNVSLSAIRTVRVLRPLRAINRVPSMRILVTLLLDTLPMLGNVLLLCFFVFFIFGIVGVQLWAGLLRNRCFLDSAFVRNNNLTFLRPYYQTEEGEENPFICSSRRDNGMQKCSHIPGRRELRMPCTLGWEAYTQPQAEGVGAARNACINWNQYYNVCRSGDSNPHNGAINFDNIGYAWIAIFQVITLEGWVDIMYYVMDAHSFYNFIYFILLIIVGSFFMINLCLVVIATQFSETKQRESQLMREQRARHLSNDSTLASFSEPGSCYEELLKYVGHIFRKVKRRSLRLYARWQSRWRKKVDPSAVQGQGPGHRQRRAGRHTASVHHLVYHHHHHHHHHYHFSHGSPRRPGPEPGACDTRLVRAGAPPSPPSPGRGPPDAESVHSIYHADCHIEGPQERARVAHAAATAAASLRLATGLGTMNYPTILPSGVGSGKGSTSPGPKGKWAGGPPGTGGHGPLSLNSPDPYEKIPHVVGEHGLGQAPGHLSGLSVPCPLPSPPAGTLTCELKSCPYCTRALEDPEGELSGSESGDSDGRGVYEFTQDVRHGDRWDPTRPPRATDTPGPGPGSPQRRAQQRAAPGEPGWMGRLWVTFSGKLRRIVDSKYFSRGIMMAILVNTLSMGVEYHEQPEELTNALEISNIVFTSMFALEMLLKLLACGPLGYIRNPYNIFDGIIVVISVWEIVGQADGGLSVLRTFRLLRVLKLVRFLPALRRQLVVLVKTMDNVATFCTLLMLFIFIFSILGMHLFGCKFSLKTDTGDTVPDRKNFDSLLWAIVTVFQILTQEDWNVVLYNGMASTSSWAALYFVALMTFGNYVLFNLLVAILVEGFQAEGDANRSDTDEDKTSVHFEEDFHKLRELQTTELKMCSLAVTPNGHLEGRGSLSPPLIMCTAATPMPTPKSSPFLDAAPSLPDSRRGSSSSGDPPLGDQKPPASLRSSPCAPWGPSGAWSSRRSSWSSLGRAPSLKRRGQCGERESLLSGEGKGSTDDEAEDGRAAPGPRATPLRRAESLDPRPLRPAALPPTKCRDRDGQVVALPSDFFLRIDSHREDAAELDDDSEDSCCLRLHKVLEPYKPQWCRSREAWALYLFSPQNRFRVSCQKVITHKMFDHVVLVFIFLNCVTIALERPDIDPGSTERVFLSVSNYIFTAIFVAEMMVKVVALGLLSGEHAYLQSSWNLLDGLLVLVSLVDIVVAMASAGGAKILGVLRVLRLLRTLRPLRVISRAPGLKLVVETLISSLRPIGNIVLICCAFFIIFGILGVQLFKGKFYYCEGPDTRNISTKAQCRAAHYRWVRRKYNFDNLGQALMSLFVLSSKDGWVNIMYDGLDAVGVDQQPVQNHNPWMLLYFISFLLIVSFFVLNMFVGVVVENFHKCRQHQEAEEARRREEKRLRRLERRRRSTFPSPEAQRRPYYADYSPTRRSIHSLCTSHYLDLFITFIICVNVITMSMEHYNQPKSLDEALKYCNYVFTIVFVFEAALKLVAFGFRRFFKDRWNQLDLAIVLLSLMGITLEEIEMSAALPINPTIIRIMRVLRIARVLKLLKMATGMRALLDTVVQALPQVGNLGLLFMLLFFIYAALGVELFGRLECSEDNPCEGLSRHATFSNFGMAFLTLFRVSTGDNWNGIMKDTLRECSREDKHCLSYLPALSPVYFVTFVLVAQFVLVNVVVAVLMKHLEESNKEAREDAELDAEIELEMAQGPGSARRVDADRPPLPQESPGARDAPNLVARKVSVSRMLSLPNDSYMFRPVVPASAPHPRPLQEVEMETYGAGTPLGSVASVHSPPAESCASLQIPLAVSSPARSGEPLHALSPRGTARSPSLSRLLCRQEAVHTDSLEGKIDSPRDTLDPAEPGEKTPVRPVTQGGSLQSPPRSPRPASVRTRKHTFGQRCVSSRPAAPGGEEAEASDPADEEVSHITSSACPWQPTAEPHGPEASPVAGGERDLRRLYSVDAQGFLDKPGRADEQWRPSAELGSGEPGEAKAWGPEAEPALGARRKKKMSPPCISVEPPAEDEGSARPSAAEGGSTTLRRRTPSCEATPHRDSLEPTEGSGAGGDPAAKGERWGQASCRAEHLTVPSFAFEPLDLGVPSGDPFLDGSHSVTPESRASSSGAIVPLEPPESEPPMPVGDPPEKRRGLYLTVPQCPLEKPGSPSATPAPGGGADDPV
Experiment [19] relates to HEK293. The experiment in a line: cells. Particulars: Homo sapiens.
Experiment [20] relates to HEK293. Nature of the experiment: cells. Particulars: Homo sapiens. This is another data set of the same source.
Experiment [21] relates to Jurkat. The experiment in a line: antigen receptor-induced NF-kB inhibitors, dose response, Jurkat, luciferase reporter, luminescence, B- and T-cell (AID 489004).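 Note: NF-kB luciferase reporter Jurkat cells stimulated with PMA plus ionomycin.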 The conditions noted are these: Homo sapiens. The class given is functional, cell-based.
The nature of experiment [22]: cytotoxicity in HEK-293T NF-kB-Luc cells, dose response, cytotoxicity control for B/T-cell NF-kB inhibitor project, cell-based, uHTS hits (AID 489019).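 Note: IC50 reflects cytotoxicity as loss of cell viability.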 The class given is functional.
Experiment [23] deals with T4, Calpain-2 catalytic subunit (Sus scrofa, UniProt P43367).
T4 sequence (P43367 whole entry): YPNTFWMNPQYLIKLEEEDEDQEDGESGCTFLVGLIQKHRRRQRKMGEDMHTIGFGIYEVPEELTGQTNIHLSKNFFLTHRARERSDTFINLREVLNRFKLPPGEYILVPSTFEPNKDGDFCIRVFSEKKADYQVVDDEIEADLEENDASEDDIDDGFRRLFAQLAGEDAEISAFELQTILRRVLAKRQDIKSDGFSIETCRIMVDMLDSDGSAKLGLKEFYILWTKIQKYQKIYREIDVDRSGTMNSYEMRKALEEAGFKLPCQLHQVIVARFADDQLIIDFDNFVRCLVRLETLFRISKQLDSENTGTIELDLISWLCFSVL
The experiment in a line: pig calpain II inhibitor potency, dose response, biochemical, fluorogenic peptide substrate (AID 1420). The class given is functional.

In experiment [24] the target is T5, Alkaline phosphatase, tissue-nonspecific isozyme (Homo sapiens, UniProt P05186).
T5 sequence (P05186 whole entry): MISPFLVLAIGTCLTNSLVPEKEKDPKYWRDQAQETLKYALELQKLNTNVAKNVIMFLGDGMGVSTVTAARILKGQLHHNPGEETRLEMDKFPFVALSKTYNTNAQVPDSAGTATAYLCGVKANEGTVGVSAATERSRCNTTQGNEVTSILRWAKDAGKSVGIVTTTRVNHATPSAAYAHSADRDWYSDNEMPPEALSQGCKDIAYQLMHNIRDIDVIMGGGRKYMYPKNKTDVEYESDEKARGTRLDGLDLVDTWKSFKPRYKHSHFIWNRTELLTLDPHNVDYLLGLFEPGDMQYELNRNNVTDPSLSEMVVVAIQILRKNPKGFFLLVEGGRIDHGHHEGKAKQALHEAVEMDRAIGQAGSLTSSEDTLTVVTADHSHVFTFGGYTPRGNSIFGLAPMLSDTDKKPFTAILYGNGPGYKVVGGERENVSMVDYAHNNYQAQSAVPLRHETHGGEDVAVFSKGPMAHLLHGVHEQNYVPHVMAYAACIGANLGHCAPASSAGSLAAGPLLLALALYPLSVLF
Nature of the experiment: TNAP enzyme inhibition by screening hits, dose response, selectivity assay for mouse IAP inhibitor project, biochemical, human TNAP, uHTS hits (AID 488906). The class given is functional.

For experiment [25], the target named is Intestinal-type alkaline phosphatase (Mus musculus, UniProt P24822). The experiment in a line: PubChem AID 488785. The format is functional.
The target in experiment [26] is Intestinal-type alkaline phosphatase (Homo sapiens, UniProt P09923). The experiment in a line: inhibition of human intestinal alkaline phosphatase – biochemical, dose response (AID 488876). The format is functional.
Chain of Intestinal-type alkaline phosphatase (Homo sapiens, UniProt P09923) (P09923 whole entry): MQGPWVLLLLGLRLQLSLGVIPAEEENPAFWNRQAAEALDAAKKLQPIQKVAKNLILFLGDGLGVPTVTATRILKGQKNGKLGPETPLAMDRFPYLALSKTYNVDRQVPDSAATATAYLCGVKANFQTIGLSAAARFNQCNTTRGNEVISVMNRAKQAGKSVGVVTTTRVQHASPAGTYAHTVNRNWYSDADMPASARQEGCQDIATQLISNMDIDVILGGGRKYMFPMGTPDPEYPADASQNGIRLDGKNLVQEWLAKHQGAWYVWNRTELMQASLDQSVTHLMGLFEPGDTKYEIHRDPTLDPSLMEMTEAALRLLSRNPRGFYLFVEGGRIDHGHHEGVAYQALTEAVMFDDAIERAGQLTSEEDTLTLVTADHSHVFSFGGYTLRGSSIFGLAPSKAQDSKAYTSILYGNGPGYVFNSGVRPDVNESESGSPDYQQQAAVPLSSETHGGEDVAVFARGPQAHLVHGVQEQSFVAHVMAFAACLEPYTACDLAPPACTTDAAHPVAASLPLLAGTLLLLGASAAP

Calls of active or inactive are those of the source. Some results are limits rather than exact numbers.

Chain of Apelin receptor (P35414 whole entry, the tested form may be a part): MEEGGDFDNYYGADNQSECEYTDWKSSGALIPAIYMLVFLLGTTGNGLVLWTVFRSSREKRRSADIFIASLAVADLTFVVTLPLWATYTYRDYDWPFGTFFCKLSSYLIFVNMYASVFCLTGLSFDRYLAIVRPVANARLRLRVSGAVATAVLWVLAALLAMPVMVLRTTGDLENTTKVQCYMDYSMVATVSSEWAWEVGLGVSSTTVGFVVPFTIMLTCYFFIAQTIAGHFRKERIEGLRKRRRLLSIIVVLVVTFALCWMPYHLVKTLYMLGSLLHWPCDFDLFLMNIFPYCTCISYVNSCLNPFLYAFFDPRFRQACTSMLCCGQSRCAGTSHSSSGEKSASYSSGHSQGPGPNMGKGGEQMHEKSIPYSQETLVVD

Take `NS(=O)(=O)c1ccc(N2N=C(c3ccc(Br)cc3)CC2c2ccc(F)cc2)cc1` (configuration not stated): the CC50 (as a rule, the concentration at which the toxic effect on the cells reaches its halfway point) in the experiment with Vero was 17.1 µM (active); in experiment [8], > 40 µM (active). For the same compound, the concentration giving a half-maximal response (EC50) – broadly, the concentration at which the effect is half-maximal – in experiment [1] is 15.4 µM (active); with Streptococcus it was 5.44 µM (active); in experiment [2] it was 877 nM (active); in [3] it was 2.62 µM (active); in experiment [4], 25 µM (inactive); in [5], 2.2 µM (active). Also, the results for the concentration giving a half-maximal response (EC50) (in experiment [6]; on Streptokinase A; in experiment [7]) were 14.1 µM (active), > 150 µM (not active) and 3.33 µM (active), respectively. Moreover, the IC50 (commonly the concentration needed to halve the response being measured) at Protein Tat is > 100 µM (active).

On to `COc1cc(-c2noc(C)c2C#Cc2ccc(N)cc2)cc(OC)c1OC`, for which the results for the AC50 in [9] and in experiment [10] were 8 µM (inconclusive) and 219 nM (active), respectively.

In the case of `Cc1ccc(NC(=O)C2CC3CCC2C3)c(C)c1` (configuration not stated), the EC50 in experiment [11] is 220 nM (active).

Regarding `CSc1ccc(-c2nc(CSCC(=O)NC3CC3)c(C)o2)cc1`, the IC50 in the experiment on Jurkat [12] is > 80 µM (inactive); in the experiment with HEK293 [13], 49.7 µM (inactive); in experiment [14] it was > 80 µM (inactive); with HEK293 [15], > 80 µM (inactive).

As to `O=C(CSc1cccc2cccnc12)Nc1ccc(S(=O)(=O)N2CCOCC2)cc1`, the half-maximal effective concentration (EC50) in experiment [16] is 7.88 µM (active); in experiment [17], 1.58 µM (active). Further, the IC50 at Apelin receptor is 11 µM (active); on Beta-galactosidase, > 66.6 µM (inactive).

Consider `O=C(NC1CCC2CN(CC3CCCC3)CC21)c1cc(Cl)cc(Cl)c1` (configuration not stated), for which the 50% effective concentration (EC50) in experiment [18] was 6.4 µM (active).

With `C=CCO/C(O)=C1\C(C)=NC(SCC(=O)Nc2nccs2)=C(C#N)C1c1ccc(Cl)cc1` (configuration not stated), the EC50 in the experiment with HEK293 [19] and with HEK293 [20] was > 59.6 µM (inactive) throughout.

As to `O=C(NCCNCCO)C1(C(F)(F)F)C/C(=C\CCO)CCCO1` (configuration not stated), the IC50 (with Jurkat [21]; in [22]) was > 80 µM (inactive) in each case.

Take `O=C(Nc1ccc(Cl)cc1)NC1CCCCC1Cc1ccco1` (configuration not stated): the 50% inhibitory concentration (IC50) is 2.69 µM (not active) in experiment [23], > 100 µM (inactive) in experiment [24], 12.2 µM (active) in [25] and > 100 µM (inactive) in experiment [26].
